Active and inactive are the calls of the source. The calls are words filed in the database; no cut-off is given here.
Legend:
Type in all cases: nucleic-acid assay
[1] = test system: Quadruplex DNA; experiment: Binding affinity to HT G-quadruplex DNA (unknown origin) assessed as stabilization of parallel G-quadruplex structure at 10 to 70 uM by CD spectroscopic method
[2] = test system: Quadruplex DNA; experiment: Binding affinity to HT G-quadruplex DNA (unknown origin) measured after 5 mins by UV-visible absorption titration method
[3] = test system: Quadruplex DNA; experiment: Binding affinity to HT4-2 template G-quadruplex DNA (unknown origin) assessed as inhibition of polymerase progression at 2nt separation site at 20 to 100 uM using FAM-lablled primer P18 and dNTPs measured after 30 mins by phosphorimaging based taq polymerase stop assay
[4] = test system: Quadruplex DNA; experiment: Binding affinity to HT4-2 template G-quadruplex DNA (unknown origin) at 55 degC
[5] = test system: Quadruplex DNA; experiment: Binding affinity to HT4-2-Mut1 template G-quadruplex DNA (unknown origin) assessed as inhibition of polymerase progression at 2nt separation site at 20 to 100 uM using FAM-lablled primer P18 and dNTPs measured after 30 mins by phosphorimaging based taq polymerase stop assay
[6] = test system: Quadruplex DNA; experiment: Binding affinity to HT4-2-Mut2 template G-quadruplex DNA (unknown origin) assessed as inhibition of polymerase progression at 2nt separation site at 20 to 100 uM using FAM-lablled primer P18 and dNTPs measured after 30 mins by phosphorimaging based taq polymerase stop assay
[7] = test system: Quadruplex DNA; experiment: Binding affinity to HT4-2-Mut3 template G-quadruplex DNA (unknown origin) assessed as inhibition of polymerase progression at 2nt separation site at 20 to 100 uM using FAM-lablled primer P18 and dNTPs measured after 30 mins by phosphorimaging based taq polymerase stop assay
[8] = test system: Quadruplex DNA; experiment: Binding affinity to HT4-2 template G-quadruplex DNA (unknown origin) assessed as primer extension stopped right before TTAGGG-repeating at 20 to 100 uM using FAM-lablled primer P18 and dNTPs measured after 30 mins in presence of marker 2 by phosphorimaging based taq polymerase stop assay

**Q.** How did the Activity [1] turn out when `[N-]=[N+]=NCCCC[N+]1(CCOc2ccc(/N=N/c3ccc(OCC[N+]4(CCCCN=[N+]=[N-])CCCCC4)cc3)cc2)CCCCC1` was run?
**A.** The Activity was “Active”.

**Q.** And the K [2]?
**A.** The K was 2.1 ×10⁵ /M.

**Q.** And the inhibition [3]?
**A.** Its inhibition is “Active”.

**Q.** What about the Activity [4] of the same compound?
**A.** The Activity was “inactive”.

**Q.** What about the inhibition [5] of the same compound?
**A.** Its inhibition is “inactive”.

**Q.** And the inhibition [6]?
**A.** Its inhibition is “inactive”.

**Q.** And the inhibition [7]?
**A.** Its inhibition is “inactive”.

**Q.** What about the Activity [8] of the same compound?
**A.** Its Activity is “Active”.

— ChEMBL document CHEMBL4339206, “Specific stabilization of DNA G-quadruplex structures with a chemically modified complementary probe” (Bioorg Med Chem, 2019)
